Assay results from PMC7584476, “Safety and efficacy of BAY1436032 in IDH1-mutant AML: phase I study results” (Leukemia, 2020).

Test system: subjects with mIDH1 advanced AML
Experiment: Phase I study: safety and tolerability (TEAE, DLT, MTD, ECG)
Format: in vivo
Method: This study was an open-label, nonrandomized, multicenter phase I trial. Subjects were screened at 13 hospital sites in 2 countries (USA and Germany). The study was to consist of dose-escalation followed by dose-expansion. The MTD identified in dose-escalation was to be used in the dose-expansion. If MTD was not reached in dose-escalation, a dose for the expansion would be selected based on available PK, pharmacodynamic, safety, and efficacy data. BAY1436032 was administered twice-daily (BID) in continuous 28-day cycles. In dose-escalation, up to 9 evaluable subjects could be enrolled per cohort, with a minimum of 3 dose-limiting toxicity (DLT)-free evaluable subjects required prior to escalating to the next highest dose. Bayesian dose-DLT modeling was performed to help guide dosing decisions.
DLTs were differentially defined for nonhematopoietic versus hematopoietic toxicities. Nonhematopoietic toxicities of ≥grade 3 occurring during the first cycle of treatment were to be considered DLTs with the following exceptions: (1) Alopecia and nausea controlled by medical management; (2) Tumor lysis syndrome if successfully managed clinically and resolved within 7 days without any end-organ damage; (3) Differentiation syndrome (DS) if successfully managed clinically and resolved within 7 days without any end-organ damage; (4) Asymptomatic ≥grade 3 electrolyte abnormalities not considered clinically significant by the investigator. […] For certain toxicities such as laboratory assessments without a clear clinical correlate, a discussion between the investigator and the sponsor determined whether the adverse event (AE) should be assessed as a DLT.
DLTs identified during the first cycle of treatment were used to guide dose-escalation decisions and to determine the MTD, and if safety issues appeared in subsequent cycles they were also to be considered. Hydroxyurea was permitted during the first cycle if white blood cell (WBC) exceeded 20 × 10^9/L and was also permitted for treatment of DS.
Safety and tolerability were evaluated by analysis of adverse events, physical examinations, vital signs, ECOG performance status, and various laboratory assessments. For safety monitoring, subjects were scheduled for clinic visits every week for the initial three cycles of treatment, after which time visits could be reduced to every-other-week with investigator and sponsor agreement. Cardiac function was assessed with triplicate 12-lead electrocardiograms (ECG) at screening, C1-D1, C1-D2, C1-D15, D1 of every subsequent cycle, and at treatment end. […] AEs are presented by the Medical Dictionary for Regulatory Activities (MedDRA) v21.1.

## C[C@H]1C[C@@H](n2c(Nc3ccc(OC(F)(F)F)cc3)nc3cc(CCC(=O)O)ccc32)CC(C)(C)C1 [BAY1436032]
300 mg BID, n=7
  Related TEAE Decreased appetite Grade 1: 1
  Related TEAE Decreased appetite Grade 2: 1
  Related TEAE Diarrhea Grade 2: 0
  Related TEAE Differentiation syndrome Grade 2: 0
  Related TEAE Differentiation syndrome Grade 3: 0
  Related TEAE Dyspnea Grade 1: 1
  Related TEAE Dyspnea Grade 2: 1
  Related TEAE Fatigue Grade 1: 0
  Related TEAE Fatigue Grade 2: 1
  Related TEAE Fatigue Grade 3: 0
  Related TEAE Hypomagnesaemia Grade 1: 1
  Related TEAE Nausea Grade 1: 1
  Related TEAE Nausea Grade 2: 1
  Related TEAE Sinus tachycardia Grade 1: 1
  Related TEAE Vomiting Grade 1: 2
  TEAE Abdominal pain upper Grade 1: 0
  TEAE Abdominal pain upper Grade 2: 0
  TEAE Acute kidney injury Grade 1: 1
  TEAE Acute kidney injury Grade 2: 1
  TEAE Acute kidney injury Grade 3: 0
  TEAE Anaemia Grade 3: 0
  TEAE Anaemia Grade 4: 1
  TEAE Anxiety Grade 1: 1
  TEAE Anxiety Grade 2: 0
  TEAE Arthralgia Grade 1: 0
  TEAE Arthralgia Grade 2: 0
  TEAE Constipation Grade 1: 0
  TEAE Constipation Grade 2: 1
  TEAE Contusion Grade 1: 1
  TEAE Contusion Grade 2: 0
  TEAE Cough Grade 1: 2
  TEAE Cough Grade 2: 1
  TEAE Decreased appetite Grade 1: 3
  TEAE Decreased appetite Grade 2: 1
  TEAE Decreased appetite Grade 3: 0
  TEAE Diarrhea Grade 1: 4
  TEAE Diarrhea Grade 2: 0
  TEAE Dry skin Grade 1: 2
  TEAE Dyspnoea Grade 1: 2
  TEAE Dyspnoea Grade 2: 1
  TEAE Dyspnoea Grade 3: 2
  TEAE Epistaxis Grade 1: 0
  TEAE Epistaxis Grade 2: 0
  TEAE Epistaxis Grade 3: 0
  TEAE Fall Grade 1: 0
  TEAE Fatigue Grade 1: 2
  TEAE Fatigue Grade 2: 1
  TEAE Fatigue Grade 3: 1
  TEAE Febrile neutropenia Grade 3: 2
  TEAE General physical health deterioration Grade 3: 0
  TEAE General physical health deterioration Grade 5: 0
  TEAE Gingivitis Grade 1: 2
  TEAE Haematuria Grade 1: 1
  TEAE Haematuria Grade 2: 0
  TEAE Haematuria Grade 3: 0
  TEAE Headache Grade 1: 1
  TEAE Headache Grade 2: 2
  TEAE Headache Grade 3: 0
  TEAE Hyperkalaemia Grade 1: 1
  TEAE Hyperkalaemia Grade 4: 0
  TEAE Hypertension Grade 2: 0
  TEAE Hypertension Grade 3: 0
  TEAE Hyperuricaemia Grade 1: 0
  TEAE Hyperuricaemia Grade 3: 0
  TEAE Hypokalaemia Grade 1: 2
  TEAE Hypokalaemia Grade 2: 0
  TEAE Hypokalaemia Grade 3: 1
  TEAE Hyponatraemia Grade 1: 2
  TEAE Hyponatraemia Grade 3: 0
  TEAE Hypophosphataemia Grade 1: 0
  TEAE Hypophosphataemia Grade 2: 1
  TEAE Leukocytosis Grade 2: 1
  TEAE Leukocytosis Grade 3: 1
  TEAE Lung infection Grade 3: 1
  TEAE Lung infection Grade 5: 1
  TEAE Nausea Grade 1: 1
  TEAE Nausea Grade 2: 1
  TEAE Nausea Grade 3: 0
  TEAE Oedema peripheral Grade 1: 3
  TEAE Oedema peripheral Grade 3: 1
  TEAE Pain in extremity Grade 1: 1
  TEAE Pain in extremity Grade 2: 0
  TEAE Pneumonia Grade 1: 0
  TEAE Pneumonia Grade 2: 1
  TEAE Pneumonia Grade 3: 1
  TEAE Pneumonia fungal Grade 2: 0
  TEAE Pneumonia fungal Grade 3: 0
  TEAE Pneumonia fungal Grade 4: 0
  TEAE Productive cough Grade 1: 0
  TEAE Productive cough Grade 2: 0
  TEAE Pyrexia Grade 1: 0
  TEAE Pyrexia Grade 2: 0
  TEAE Pyrexia Grade 3: 0
  TEAE Rash Grade 1: 0
  TEAE Rash Grade 2: 0
  TEAE Sepsis Grade 4: 2
  TEAE Sepsis Grade 5: 1
  TEAE Sinus tachycardia Grade 1: 2
  TEAE Thrombocytopenia Grade 4: 0
  TEAE Vomiting Grade 1: 3
  TEAE Weight decreased Grade 1: 2
  TEAE Weight decreased Grade 2: 0
  TEAE Weight decreased Grade 3: 0
600 mg BID, n=4
  Related TEAE Decreased appetite Grade 1: 0
  Related TEAE Decreased appetite Grade 2: 0
  Related TEAE Diarrhea Grade 2: 0
  Related TEAE Differentiation syndrome Grade 2: 0
  Related TEAE Differentiation syndrome Grade 3: 0
  Related TEAE Dyspnea Grade 1: 0
  Related TEAE Dyspnea Grade 2: 0
  Related TEAE Fatigue Grade 1: 1
  Related TEAE Fatigue Grade 2: 0
  Related TEAE Fatigue Grade 3: 0
  Related TEAE Hypomagnesaemia Grade 1: 0
  Related TEAE Nausea Grade 1: 1
  Related TEAE Nausea Grade 2: 0
  Related TEAE Sinus tachycardia Grade 1: 0
  Related TEAE Vomiting Grade 1: 1
  TEAE Abdominal pain upper Grade 1: 0
  TEAE Abdominal pain upper Grade 2: 0
  TEAE Acute kidney injury Grade 1: 0
  TEAE Acute kidney injury Grade 2: 0
  TEAE Acute kidney injury Grade 3: 1
  TEAE Anaemia Grade 3: 1
  TEAE Anaemia Grade 4: 0
  TEAE Anxiety Grade 1: 0
  TEAE Anxiety Grade 2: 0
  TEAE Arthralgia Grade 1: 0
  TEAE Arthralgia Grade 2: 0
  TEAE Constipation Grade 1: 0
  TEAE Constipation Grade 2: 0
  TEAE Contusion Grade 1: 0
  TEAE Contusion Grade 2: 0
  TEAE Cough Grade 1: 1
  TEAE Cough Grade 2: 0
  TEAE Decreased appetite Grade 1: 0
  TEAE Decreased appetite Grade 2: 0
  TEAE Decreased appetite Grade 3: 0
  TEAE Diarrhea Grade 1: 0
  TEAE Diarrhea Grade 2: 0
  TEAE Dry skin Grade 1: 1
  TEAE Dyspnoea Grade 1: 0
  TEAE Dyspnoea Grade 2: 0
  TEAE Dyspnoea Grade 3: 0
  TEAE Epistaxis Grade 1: 1
  TEAE Epistaxis Grade 2: 0
  TEAE Epistaxis Grade 3: 1
  TEAE Fall Grade 1: 1
  TEAE Fatigue Grade 1: 1
  TEAE Fatigue Grade 2: 0
  TEAE Fatigue Grade 3: 0
  TEAE Febrile neutropenia Grade 3: 1
  TEAE General physical health deterioration Grade 3: 0
  TEAE General physical health deterioration Grade 5: 0
  TEAE Gingivitis Grade 1: 1
  TEAE Haematuria Grade 1: 0
  TEAE Haematuria Grade 2: 1
  TEAE Haematuria Grade 3: 0
  TEAE Headache Grade 1: 0
  TEAE Headache Grade 2: 0
  TEAE Headache Grade 3: 0
  TEAE Hyperkalaemia Grade 1: 1
  TEAE Hyperkalaemia Grade 4: 1
  TEAE Hypertension Grade 2: 0
  TEAE Hypertension Grade 3: 0
  TEAE Hyperuricaemia Grade 1: 1
  TEAE Hyperuricaemia Grade 3: 1
  TEAE Hypokalaemia Grade 1: 0
  TEAE Hypokalaemia Grade 2: 0
  TEAE Hypokalaemia Grade 3: 0
  TEAE Hyponatraemia Grade 1: 0
  TEAE Hyponatraemia Grade 3: 0
  TEAE Hypophosphataemia Grade 1: 0
  TEAE Hypophosphataemia Grade 2: 0
  TEAE Leukocytosis Grade 2: 0
  TEAE Leukocytosis Grade 3: 0
  TEAE Lung infection Grade 3: 1
  TEAE Lung infection Grade 5: 0
  TEAE Nausea Grade 1: 1
  TEAE Nausea Grade 2: 0
  TEAE Nausea Grade 3: 0
  TEAE Oedema peripheral Grade 1: 1
  TEAE Oedema peripheral Grade 3: 0
  TEAE Pain in extremity Grade 1: 0
  TEAE Pain in extremity Grade 2: 0
  TEAE Pneumonia Grade 1: 0
  TEAE Pneumonia Grade 2: 0
  TEAE Pneumonia Grade 3: 0
  TEAE Pneumonia fungal Grade 2: 0
  TEAE Pneumonia fungal Grade 3: 0
  TEAE Pneumonia fungal Grade 4: 0
  TEAE Productive cough Grade 1: 1
  TEAE Productive cough Grade 2: 0
  TEAE Pyrexia Grade 1: 1
  TEAE Pyrexia Grade 2: 1
  TEAE Pyrexia Grade 3: 0
  TEAE Rash Grade 1: 0
  TEAE Rash Grade 2: 1
  TEAE Sepsis Grade 4: 1
  TEAE Sepsis Grade 5: 0
  TEAE Sinus tachycardia Grade 1: 0
  TEAE Thrombocytopenia Grade 4: 0
  TEAE Vomiting Grade 1: 1
  TEAE Weight decreased Grade 1: 0
  TEAE Weight decreased Grade 2: 1
  TEAE Weight decreased Grade 3: 0
1200 mg BID, n=7
  Related TEAE Decreased appetite Grade 1: 0
  Related TEAE Decreased appetite Grade 2: 0
  Related TEAE Diarrhea Grade 2: 2
  Related TEAE Differentiation syndrome Grade 2: 0
  Related TEAE Differentiation syndrome Grade 3: 1
  Related TEAE Dyspnea Grade 1: 1
  Related TEAE Dyspnea Grade 2: 0
  Related TEAE Fatigue Grade 1: 0
  Related TEAE Fatigue Grade 2: 1
  Related TEAE Fatigue Grade 3: 0
  Related TEAE Hypomagnesaemia Grade 1: 0
  Related TEAE Nausea Grade 1: 1
  Related TEAE Nausea Grade 2: 0
  Related TEAE Sinus tachycardia Grade 1: 0
  Related TEAE Vomiting Grade 1: 0
  TEAE Abdominal pain upper Grade 1: 0
  TEAE Abdominal pain upper Grade 2: 0
  TEAE Acute kidney injury Grade 1: 0
  TEAE Acute kidney injury Grade 2: 0
  TEAE Acute kidney injury Grade 3: 0
  TEAE Anaemia Grade 3: 3
  TEAE Anaemia Grade 4: 0
  TEAE Anxiety Grade 1: 1
  TEAE Anxiety Grade 2: 0
  TEAE Arthralgia Grade 1: 0
  TEAE Arthralgia Grade 2: 1
  TEAE Constipation Grade 1: 1
  TEAE Constipation Grade 2: 0
  TEAE Contusion Grade 1: 1
  TEAE Contusion Grade 2: 0
  TEAE Cough Grade 1: 0
  TEAE Cough Grade 2: 0
  TEAE Decreased appetite Grade 1: 0
  TEAE Decreased appetite Grade 2: 1
  TEAE Decreased appetite Grade 3: 0
  TEAE Diarrhea Grade 1: 1
  TEAE Diarrhea Grade 2: 2
  TEAE Dry skin Grade 1: 1
  TEAE Dyspnoea Grade 1: 1
  TEAE Dyspnoea Grade 2: 1
  TEAE Dyspnoea Grade 3: 0
  TEAE Epistaxis Grade 1: 0
  TEAE Epistaxis Grade 2: 2
  TEAE Epistaxis Grade 3: 0
  TEAE Fall Grade 1: 1
  TEAE Fatigue Grade 1: 0
  TEAE Fatigue Grade 2: 2
  TEAE Fatigue Grade 3: 0
  TEAE Febrile neutropenia Grade 3: 2
  TEAE General physical health deterioration Grade 3: 0
  TEAE General physical health deterioration Grade 5: 0
  TEAE Gingivitis Grade 1: 0
  TEAE Haematuria Grade 1: 1
  TEAE Haematuria Grade 2: 0
  TEAE Haematuria Grade 3: 0
  TEAE Headache Grade 1: 0
  TEAE Headache Grade 2: 0
  TEAE Headache Grade 3: 0
  TEAE Hyperkalaemia Grade 1: 0
  TEAE Hyperkalaemia Grade 4: 0
  TEAE Hypertension Grade 2: 0
  TEAE Hypertension Grade 3: 1
  TEAE Hyperuricaemia Grade 1: 2
  TEAE Hyperuricaemia Grade 3: 0
